Source: patent US6348477B1, “Anti-herpesvirus compounds and methods for identifying, making and using same” (Boehringer Ingelheim(Canada) Ltd., priority 1995, dated 2002)

Assays:
HSV-1 helicase-primase = biological target: T1, HSV-1 helicase-primase (Human herpesvirus 1, UniProt P10189+P10236); test: HSV-1 DNA-dependent ATPase assay (inhibition of HSV-1 helicase-primase); format: biochemical; details: Group 1 Table 1
T1 construct: made in house; host or cells: Sf21 insect cells triply infected with recombinant baculoviruses
Method in brief: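 HSV-1 helicase-primase holoenzyme (UL5/UL8/UL52, expressed in baculovirus-infected Sf21 cells, purified; 3 μg/mL) with 4 mM ATP and 25 μM primed single-stranded M13 DNA in HEPES pH 7.5, 5.5 mM MgCl2, 3.3% DMSO, 20 min at 34°. Released phosphate is read with malachite green at 650 nm, and activity is taken from the net absorbance change.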

HCMV (strain AD169) [1] = test: Inhibition of HCMV replication, ELISA assay (Hs-68 cells, p28); format: cell-based, human cytomegalovirus; details: Human betaherpesvirus 5, AD169, Hs68; Group 1 Table 1; read-out: ELISA CMV EC50
Method in brief: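 Hs-68 cells infected with HCMV AD169 at MOI 0.01 PFU/cell (2 h adsorption), washed, then incubated with compound for 8 days at 37° in DMEM/5% FBS. Late protein p28 detected in fixed cells by mAb UL99 ELISA (HRP/OPD, 450 nm). EC50 from % inhibition of replication.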

HCMV (strain AD169) [2] = test: Inhibition of HCMV replication, plaque reduction assay (PRA, Hs-68 cells); format: cell-based, human cytomegalovirus; details: Human betaherpesvirus 5, AD169, Hs68; Group 1 Table 1; read-out: PRA CMV EC50
Method in brief: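 Hs-68 cells infected with about 50 PFU HCMV AD169 (2 h adsorption, 37°), then incubated with compound in 5% inactivated-FBS medium for 4 days, refed with fresh compound, 4 more days. Crystal violet-stained plaques counted; EC50 from percent plaque reduction versus untreated.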

T1 sequence (P10189 whole entry): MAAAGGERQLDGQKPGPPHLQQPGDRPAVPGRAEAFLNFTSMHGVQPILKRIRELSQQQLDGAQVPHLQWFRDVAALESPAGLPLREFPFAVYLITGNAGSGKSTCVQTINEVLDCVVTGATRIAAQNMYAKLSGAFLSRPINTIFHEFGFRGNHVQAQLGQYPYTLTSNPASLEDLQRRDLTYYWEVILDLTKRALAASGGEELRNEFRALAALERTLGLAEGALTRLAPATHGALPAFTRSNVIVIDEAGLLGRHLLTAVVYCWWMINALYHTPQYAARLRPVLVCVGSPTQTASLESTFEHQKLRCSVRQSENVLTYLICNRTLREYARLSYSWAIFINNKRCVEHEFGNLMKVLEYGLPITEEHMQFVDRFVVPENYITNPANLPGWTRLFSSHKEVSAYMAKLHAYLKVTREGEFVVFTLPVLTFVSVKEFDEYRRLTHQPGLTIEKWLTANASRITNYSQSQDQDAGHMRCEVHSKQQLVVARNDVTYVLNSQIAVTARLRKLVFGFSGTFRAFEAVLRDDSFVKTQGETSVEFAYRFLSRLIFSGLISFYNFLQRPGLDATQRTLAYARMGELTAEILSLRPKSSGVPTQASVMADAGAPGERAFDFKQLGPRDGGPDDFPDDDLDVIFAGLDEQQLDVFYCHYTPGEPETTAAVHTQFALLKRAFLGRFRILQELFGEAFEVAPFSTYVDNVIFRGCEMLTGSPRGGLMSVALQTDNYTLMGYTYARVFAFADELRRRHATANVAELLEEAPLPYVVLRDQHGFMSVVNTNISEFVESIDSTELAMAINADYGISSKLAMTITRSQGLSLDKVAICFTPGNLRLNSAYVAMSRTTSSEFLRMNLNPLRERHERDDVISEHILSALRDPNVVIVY
T1 sequence (P10192 whole entry, further chain): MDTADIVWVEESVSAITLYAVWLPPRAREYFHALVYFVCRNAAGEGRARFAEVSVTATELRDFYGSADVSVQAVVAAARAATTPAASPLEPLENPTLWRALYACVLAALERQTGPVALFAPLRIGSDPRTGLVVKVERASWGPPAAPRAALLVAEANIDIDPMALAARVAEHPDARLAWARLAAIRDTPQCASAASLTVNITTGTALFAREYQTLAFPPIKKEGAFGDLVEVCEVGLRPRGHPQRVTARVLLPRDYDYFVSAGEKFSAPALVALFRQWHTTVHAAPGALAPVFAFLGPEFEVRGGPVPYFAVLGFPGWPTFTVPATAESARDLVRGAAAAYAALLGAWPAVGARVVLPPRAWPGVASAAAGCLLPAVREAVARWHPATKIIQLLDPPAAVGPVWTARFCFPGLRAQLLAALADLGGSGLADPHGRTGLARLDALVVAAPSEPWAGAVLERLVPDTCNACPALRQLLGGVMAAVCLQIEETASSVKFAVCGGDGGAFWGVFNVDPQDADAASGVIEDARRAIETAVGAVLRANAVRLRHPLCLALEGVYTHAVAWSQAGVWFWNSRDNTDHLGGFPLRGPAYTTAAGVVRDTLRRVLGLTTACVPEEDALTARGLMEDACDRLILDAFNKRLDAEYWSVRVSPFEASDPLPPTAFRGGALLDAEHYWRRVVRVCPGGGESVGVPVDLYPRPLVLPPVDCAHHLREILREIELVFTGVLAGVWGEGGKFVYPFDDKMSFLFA
T1 sequence (P10236 whole entry): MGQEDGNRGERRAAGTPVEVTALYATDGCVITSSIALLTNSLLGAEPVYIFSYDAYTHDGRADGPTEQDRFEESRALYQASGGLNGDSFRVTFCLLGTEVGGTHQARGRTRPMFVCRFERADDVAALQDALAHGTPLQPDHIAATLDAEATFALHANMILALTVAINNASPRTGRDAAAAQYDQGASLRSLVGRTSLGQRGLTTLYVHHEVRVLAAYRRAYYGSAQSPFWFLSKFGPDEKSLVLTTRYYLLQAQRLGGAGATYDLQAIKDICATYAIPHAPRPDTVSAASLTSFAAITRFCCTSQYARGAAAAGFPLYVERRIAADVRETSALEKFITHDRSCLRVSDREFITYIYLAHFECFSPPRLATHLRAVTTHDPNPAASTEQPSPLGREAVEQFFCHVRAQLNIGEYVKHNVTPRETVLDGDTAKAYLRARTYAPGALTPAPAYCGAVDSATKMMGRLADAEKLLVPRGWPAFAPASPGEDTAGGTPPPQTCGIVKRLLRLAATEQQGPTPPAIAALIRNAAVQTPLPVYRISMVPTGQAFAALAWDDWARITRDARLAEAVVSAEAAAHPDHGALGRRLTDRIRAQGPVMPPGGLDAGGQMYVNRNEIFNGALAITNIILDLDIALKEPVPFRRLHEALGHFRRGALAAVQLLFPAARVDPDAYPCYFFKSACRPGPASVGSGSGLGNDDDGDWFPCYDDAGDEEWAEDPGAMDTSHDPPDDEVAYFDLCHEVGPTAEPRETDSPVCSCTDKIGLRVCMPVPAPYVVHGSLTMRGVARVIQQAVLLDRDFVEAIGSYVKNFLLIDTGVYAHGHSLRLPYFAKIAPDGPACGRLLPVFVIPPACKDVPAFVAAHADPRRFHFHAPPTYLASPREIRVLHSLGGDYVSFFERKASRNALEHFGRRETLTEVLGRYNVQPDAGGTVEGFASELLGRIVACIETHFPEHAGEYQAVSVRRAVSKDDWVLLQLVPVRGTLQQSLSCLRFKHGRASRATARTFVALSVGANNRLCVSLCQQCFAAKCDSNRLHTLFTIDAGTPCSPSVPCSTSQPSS

Compound: Nc1nc(-c2ccc(NC(=O)CN(CCc3ccccc3)C(=O)c3cccnc3)cc2)cs1 [Example 67]
- IC50 (HSV-1 helicase-primase): 350 nM
- EC50 (HCMV (strain AD169) [1]): 2100 nM
- EC50 (HCMV (strain AD169) [2]): 93000 nM
